# Publication PMC6337650 (Molecules, 2018)
# Tests used:
# HCT-116 cells = experiment: MTT antiproliferative assay, HCT-116; format: cell-based, human; conditions: Homo sapiens, HCT-116, 48 h, MTT, mean ± SD, n=3; for inhibition at 100 µM: read-out: % Growth Inhibition at 100 μM HCT-116
# Description: (§1) The antiproliferative activity of the target compounds against a normal L02 cell line and the three different human cancer cell lines viz. colorectal (HCT-116), liver (BEL-7402) and liver (HepG2) were evaluated using a standard MTT-based colorimetric assay. All cell lines were obtained from the Key Laboratory of Natural Resources and Functional Molecules of the Changbai Mountain (Yanbian University, Jilin, China) and maintained in Dulbecco’s modified Eagle’s medium (DMEM) and RPMI Media 1640 (RPMI1640), supplemented with 10% fetal bovine serum (FBS) at 37 °C in a humidified atmosphere containing 5% CO2.
# (§2) Cells were plated in 96-well plates at appropriate densities to ensure exponential growth throughout the experimental period (9 × 10^3 cells per well) and then allowed to adhere for 24 h. Cells were then treated for 48 h with four serial concentrations (1, 10, 50 and 100 µM) of each compound. 5-fluorouracil (5-FU) was used as a positive control. After 48 h of incubation, 10 µL of MTT solution was added to each well to a final concentration of 2 mg/mL. Plates were then incubated for a further 4 h. After incubation, the MTT solution was removed and 150 µL of DMSO was added to each well for coloration. The plates were shaken vigorously for 10 min at room temperature to ensure complete solubilization. The optical density (OD) was read on a microplate reader (ELx800, BioTek, Highland Park, Winooski, VT, USA) at a wavelength of 492 nm and the data were subsequently analyzed. The percentage of cell growth inhibition was calculated from the following equation: Inhibitory rate (%) = [(1 − (ODtreated-ODblank)/(ODcontrol-ODblank)] × 100.(1)
# BEL-7402 cells = experiment: MTT antiproliferative assay, BEL-7402; format: cell-based, human; conditions: Homo sapiens, Bel-7402, 48 h, MTT, mean ± SD, n=3; for inhibition at 100 µM: read-out: % Growth Inhibition at 100 μM BEL-7402
# Description: as §1, §2
# HepG2 cells = experiment: MTT antiproliferative assay, HepG2; format: cell-based, human; conditions: Homo sapiens, HepG2, 48 h, MTT, mean ± SD, n=3; for inhibition at 100 µM: read-out: % Growth Inhibition at 100 μM HepG2
# Description: as §1, §2
# L02 cells = experiment: MTT assay on normal liver cells L02; format: cell-based; conditions: Homo sapiens, normal liver cells, 48 h, MTT, Table 2, read-out: IC50 Values (μM) L02
# Description: as §1
# as §2, with “5-fluorouracil (5-FU) was used as a positive control.” left out
SMILES,inhibition at 100 µM (HCT-116 cells),IC50 (HCT-116 cells),inhibition at 100 µM (BEL-7402 cells),IC50 (BEL-7402 cells),inhibition at 100 µM (HepG2 cells),IC50 (HepG2 cells),IC50 (L02 cells),melting point
"C[C@@]12CC[C@@H]3[C@@](CC[C@H]4[C@@]3(C)CCC[C@@]4(C)C(=O)OCC(=O)NCc3cn(-c4ccc(Cl)c(Cl)c4)nn3)(CC1=O)C2 [Compound 5e, 2-(((1-(3,4-dichlorophenyl)-1H-1,2,3-triazol-4-yl)methyl)amino)-2-oxoethyl(4R,4aS,6aR,9S,11aR,11bS)-4,9,11b-trimethyl-8-oxotetradecahydro-6a,9-methanocyclohepta[a]naphthalene-4-carboxylate]",71.14 ± 0.65%,14.3 ± 0.15 µM,68 ± 1.17%,> 100 µM,66.1 ± 0.97%,12.82 ± 0.09 µM,> 100 µM,96 to 97 °C
"COc1ccc(-n2cc(CNC(=O)COC(=O)[C@]3(C)CCC[C@@]4(C)[C@@H]5CC[C@@]6(C)C[C@]5(CC[C@@H]43)CC6=O)nn2)cc1 [Compound 5c, 2-(((1-(4-methoxyphenyl)-1H-1,2,3-triazol-4-yl)methyl)amino)-2-oxoethyl(4R,4aS,6aR,9S,11aR,11bS)-4,9,11b-trimethyl-8-oxotetradecahydro-6a,9-methanocyclohepta[a]naphthalene-4-carboxylate]",84.6 ± 1.55%,14.4 ± 1.31 µM,75.6 ± 1.76%,> 100 µM,82.8 ± 2.02%,12.3 ± 0.77 µM,> 100 µM,71 to 72 °C
"C[C@@]12CC[C@@H]3[C@@](CC[C@H]4[C@@]3(C)CCC[C@@]4(C)C(=O)OCC(=O)Nc3cccc(F)c3)(CC1=O)C2 [Compound 4f, 2-((3-fluorophenyl)amino)-2-oxoethyl(4R,4aS,6aR,9S,11aR,11bS)-4,9,11b-trimethyl-8-oxotetradecahydro-6a,9-methanocyclohepta[a]naphthalene-4-carboxylate]",68.7 ± 2.67%,17.2 ± 0.43 µM,54.6 ± 3.11%,> 100 µM,49.12 ± 0.44%,> 100 µM,> 100 µM,144 to 145 °C
"C[C@@]12CC[C@@H]3[C@@](CC[C@H]4[C@@]3(C)CCC[C@@]4(C)C(=O)OCC(=O)N3CCCCCC3)(CC1=O)C2 [Compound 2e, 2-(azepan-1-yl)-2-oxoethyl(4R,4aS,6aR,9S,11aR,11bS)-4,9,11b-trimethyl-8-oxotetradecahydro-6a,9-methanocyclohepta[a]naphthalene-4-carboxylate]",85.6 ± 0.96%,> 100 µM,64.9 ± 1.01%,13.2 ± 0.32 µM,50.4 ± 0.57%,20.5 ± 0.46 µM,> 100 µM,110 to 112 °C
"CCN1CCN(C(=O)COC(=O)[C@]2(C)CCC[C@@]3(C)[C@@H]4CC[C@@]5(C)C[C@]4(CC[C@@H]32)CC5=O)CC1 [Compound 2b, 2-(4-ethylpiperazin-1-yl)-2-oxoethyl(4R,4aS,6aR,9S,11aR,11bS)-4,9,11b-trimethyl-8-oxotetradecahydro-6a,9-methanocyclohepta[a]naphthalene-4-carboxylate]",60.4 ± 1.69%,30.7 ± 1.98 µM,64.4 ± 1.66%,> 100 µM,< 10%,> 100 µM,> 100 µM,115 to 117 °C
"COC(=O)C(Cc1ccccc1)NC(=O)C1(C)CCCC2(C)C3CCC4(C)CC3(CCC12)CC4=O [Compound 3b, Methyl((4R,4aS,6aR,9S,11aR,11bS)-4,9,11b-trimethyl-8-oxotetradecahydro-6a,9-methanocyclohepta[a]naphthalene-4-carbonyl)-D-phenylalaninate]",70.8 ± 0.98%,22.8 ± 0.81 µM,61.8 ± 0.96%,36.5 ± 0.67 µM,81.2 ± 2.66%,24.4 ± 1.75 µM,> 100 µM,147 to 148 °C
"C[C@@]12CC[C@@H]3[C@@](CC[C@H]4[C@@]3(C)CCC[C@@]4(C)C(=O)OCC(=O)Nc3ccccc3)(CC1=O)C2 [Compound 4a, 2-oxo-2-(phenylamino)ethyl(4R,4aS,6aR,9S,11aR,11bS)-4,9,11b-trimethyl-8-oxotetradecahydro-6a,9-methanocyclohepta[a]naphthalene-4-carboxylate]",60.4 ± 3.11%,56.6 ± 1.56 µM,50.8 ± 2.31%,> 100 µM,31.2 ± 1.19%,> 100 µM,> 100 µM,154 to 156 °C
"C[C@@]12CC[C@@H]3[C@@](CC[C@H]4[C@@]3(C)CCC[C@@]4(C)C(=O)OCC(=O)NCc3cn(-c4ccccc4)nn3)(CC1=O)C2 [Compound 5a, 2-oxo-2-(((1-phenyl-1H-1,2,3-triazol-4-yl)methyl)amino)ethyl(4R,4aS,6aR,9S,11aR,11bS)-4,9,11b-trimethyl-8-oxotetradecahydro-6a,9-methanocyclohepta[a]naphthalene-4-carboxylate]",81.9 ± 2.55%,14.6 ± 0.51 µM,90 ± 1.92%,27.1 ± 0.87 µM,87 ± 1.06%,9.87 ± 0.13 µM,> 100 µM,83 to 84 °C
"C[C@@]12CC[C@@H]3[C@@](CC[C@H]4[C@@]3(C)CCC[C@@]4(C)C(=O)O)(CC1=O)C2 [Isosteviol, isosteviol, reference compound]",34.1 ± 1.89%,> 100 µM,28 ± 1.79%,> 100 µM,11.8 ± 0.88%,> 100 µM,> 100 µM,
"C[C@@]12CC[C@@H]3[C@@](CC[C@H]4[C@@]3(C)CCC[C@@]4(C)C(=O)OCC(=O)N3CCN(Cc4ccccc4)CC3)(CC1=O)C2 [Compound 2d, 2-(4-benzylpiperazin-1-yl)-2-oxoethyl(4R,4aS,6aR,9S,11aR,11bS)-4,9,11b-trimethyl-8-oxotetradecahydro-6a,9-methanocyclohepta[a]naphthalene-4-carboxylate]",75.4 ± 1.06%,18.2 ± 1.26 µM,70.9 ± 1.05%,53 ± 1.97 µM,70.6 ± 0.89%,11.1 ± 0.55 µM,> 100 µM,149 to 150 °C
"CCOP(=O)(OCC)C(NC(=O)COC(=O)[C@]1(C)CCC[C@@]2(C)[C@@H]3CC[C@@]4(C)C[C@]3(CC[C@@H]21)CC4=O)c1ccc(C)cc1 (stereo partly drawn) [Compound 6d, 2-(((diethoxyphosphoryl)(p-tolyl)methyl)amino)-2-oxoethyl(4R,4aS,6aR,9S,11aR,11bS)-4,9,11b-trimethyl-8-oxotetradecahydro-6a,9-methanocyclohepta[a]naphthalene-4-carboxylate]",76.6 ± 2.33%,18.7 ± 0.17 µM,51.5 ± 0.68%,60.9 ± 1.37 µM,80.64 ± 0.76%,13.2 ± 0.86 µM,> 100 µM,119 to 120 °C
"CCOP(=O)(OCC)C(NC(=O)COC(=O)[C@]1(C)CCC[C@@]2(C)[C@@H]3CC[C@@]4(C)C[C@]3(CC[C@@H]21)CC4=O)c1ccc(OC)cc1 (stereo partly drawn) [Compound 6c, 2-(((diethoxyphosphoryl)(4-methoxyphenyl)methyl)amino)-2-oxoethyl(4R,4aS,6aR,9S,11aR,11bS)-4,9,11b-trimethyl-8-oxotetradecahydro-6a,9-methanocyclohepta[a]naphthalene-4-carboxylate]",74.1 ± 2.45%,15.15 ± 0.11 µM,50.9 ± 2.68%,92.6 ± 1.96 µM,41.4 ± 1.86%,> 100 µM,> 100 µM,134 to 135 °C
